20 molecules from patent publication US9133104B2 (Chroma Therapeutics Ltd., priority 2005, dated 2015) can be followed below.

For assay [1], the system named is HUT cancer cell line. The assay is described as follows: Cell inhibition assay (SRB cell viability), HUT. In kind it is cell-based. The settings on record: HUT cells, 72 h, IC50 range. Put shortly:
(§1)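 Log-phase Hela, U937 and HUT cells were seeded at 1000 cells/well, grown 24 h, then exposed to compound (20 uM final) for 72 h. Viability was read by sulphorhodamine B staining and expressed as % inhibition relative to DMSO control. IC50 values came from sigmoidal variable-slope fits of eight concentrations.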

The target in assay [2] is T1, histone deacetylase activity (HeLa nuclear extract).
T1 construct: Histone deacetylase activity from crude nuclear extract derived from HeLa cells was used for screening
The assay is described as follows: HDAC fluorescent activity assay (Biomol Fluor de Lys), HeLa nuclear extract. In kind it is biochemical. The settings on record: Fluor de Lys substrate, IC50 range. The essentials:
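Crude HeLa nuclear extract (20 mM Hepes, 100 mM KCl, 0.2 mM EDTA, 0.5 mM DTT, 0.2 mM PMSF, 20% glycerol) incubated with acetyl-lysine Fluor de Lys substrate ± inhibitor; developer generates fluorophore. Background-subtracted % of vehicle control; IC50 from eight-point variable-slope sigmoidal fit.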

The subject of assay [3] is Hela cancer cell line. The assay is described as follows: Cell inhibition assay (SRB cell viability), Hela. In kind it is cell-based. The settings on record: Homo sapiens, HeLa, 72 h, Hela cells, IC50 range. Put shortly: as §1
Assay [4] relates to U937 cancer cell line. The assay is described as follows: Cell inhibition assay (SRB cell viability), U937. In kind it is cell-based. The settings on record: Homo sapiens, U-937, U937 cells, 72 h, IC50 range. The protocol:
The corresponding cancer cell lines (Hela, U937 and HUT) growing in log phase were harvested and seeded at 1000 cells/well (200 ul final volume) into 96-well tissue culture plates. Following 24 h of cell growth cells were treated with compounds (final concentration of 20 uM). Plates were then re-incubated for a further 72 h before a sulphorhodamine B (SRB) cell viability assay was conducted according to Skehan 1990 J Natl Canc Inst 82, 1107-1112.
Data were expressed as a percentage inhibition of the control, measured in the absence of inhibitor, as follows:— % inhibition=100−((S^i/S^o)×100) where S^i is the signal in the presence of inhibitor and S^o is the signal in the presence of DMSO. IC50 values were determined by non-linear regression analysis, after fitting the results of eight data points to the equation for sigmoidal dose response with variable slope (% activity against log concentration of compound), using Graphpad Prism software. […] NT=Not tested

Take `O=C(CCCCCCC(=O)Nc1cccc(CN[C@H](C(=O)O)c2ccccc2)c1)NO` [Compound 37, (S)-[3-(7-Hydroxycarbamoyl-heptanoylamino)-benzylamino]-phenyl-acetic acid]: the IC50 (usually the point on the concentration scale where inhibition reaches its midpoint) in assay [1] was above 3.3 µM; in assay [2], 0.101 to 1 µM; in assay [3], above 3.3 µM; in assay [4], above 3.3 µM.
With `O=C(CCCCCCC(=O)Nc1ccccc1CN[C@H](C(=O)OC1CCCC1)c1ccccc1)NO` [Compound 40, (S)-[2-(7-Hydroxycarbamoyl-heptanoylamino)-benzylamino]-phenyl-acetic acid cyclopentyl ester], the IC50 in assay [1] is above 3.3 µM; in assay [2] it was above 1 µM; in assay [3], above 3.3 µM; in assay [4], above 3.3 µM.
Consider `O=C(CCCCCCC(=O)Nc1ccccc1CN[C@H](C(=O)O)c1ccccc1)NO` [Compound 41, (S)-[2-(7-Hydroxycarbamoyl-heptanoylamino)-benzylamino]-phenyl-acetic acid], for which the IC50 was above 3.3 µM in assay [1], above 1 µM in assay [2], above 3.3 µM in assay [3] and above 3.3 µM in assay [4].
As for `O=C(CCCCCCC(=O)N1CCc2c([nH]c3ccccc23)C1CN[C@H](C(=O)OC1CCCC1)c1ccccc1)NO` (stereo partly drawn) [Compound 42, (S)-{[2-(7-Hydroxycarbamoyl-heptanoyl)-2,3,4,9-tetrahydro-1H-beta-carbolin-1-ylmethyl]-amino}-phenyl-acetic acid cyclopentyl ester], the half-maximal inhibitory concentration (IC50) in assay [1] was 0.33 to 3.3 µM; in assay [2], above 1 µM; in assay [3], 0.33 to 3.3 µM; in assay [4], 0.33 to 3.3 µM.
Regarding `O=C(CCCCCCC(=O)N1CCc2c([nH]c3ccccc23)C1CN[C@H](C(=O)O)c1ccccc1)NO` (stereo partly drawn) [Compound 43, (S)-{[2-(7-Hydroxycarbamoyl-heptanoyl)-2,3,4,9-tetrahydro-1H-beta-carbolin-1-ylmethyl]-amino}-phenyl-acetic acid], the IC50 in assay [1] was above 3.3 µM; in assay [2], 0.101 to 1 µM; in assay [3], above 3.3 µM; in assay [4], above 3.3 µM.
Consider `O=C(CCCCCCC(=O)N1Cc2ccccc2C[C@H]1C(=O)N[C@H](C(=O)OC1CCCC1)c1ccccc1)NO` [Compound 44, (S)-{[(S)-2-(7-Hydroxycarbamoyl-heptanoyl)-1,2,3,4-tetrahydro-isoquinoline-3-carbonyl]-amino}-phenyl-acetic acid cyclopentyl ester], for which the IC50 is 0.33 to 3.3 µM in assay [1], 0.101 to 1 µM in assay [2], above 3.3 µM in assay [3] and 0.33 to 3.3 µM in assay [4].
`CCOC(=O)[C@@H](NC(=O)[C@@H]1Cc2ccccc2CN1C(=O)CCCCCCC(=O)NO)c1ccccc1` [Compound 46, (S)-{[(S)-2-(7-Hydroxycarbamoyl-heptanoyl)-1,2,3,4-tetrahydro-isoquinoline-3-carbonyl]-amino}-phenyl-acetic acid ethyl ester]: the IC50 in assay [1] is 0.33 to 3.3 µM; in assay [2] it was above 1 µM; in assay [3], above 3.3 µM; in assay [4], 0.33 to 3.3 µM.
Take `CCOC(=O)[C@H](Cc1ccccc1)NC(=O)[C@@H]1Cc2ccccc2CN1C(=O)CCCCCCC(=O)NO` [Compound 47, (S)-2-{[(S)-2-(7-Hydroxycarbamoyl-heptanoyl)-1,2,3,4-tetrahydro-isoquinoline-3-carbonyl]-amino}-3-phenyl-propionic acid ethyl ester]: the IC50 is 0.33 to 3.3 µM in assay [1], 0.101 to 1 µM in assay [2], above 3.3 µM in assay [3] and 0.33 to 3.3 µM in assay [4].
`O=C(CCCCCCC(=O)N1Cc2ccccc2C[C@H]1C(=O)N[C@@H](Cc1ccccc1)C(=O)O)NO` [Compound 48, (S)-2-{[(S)-2-(7-Hydroxycarbamoyl-heptanoyl)-1,2,3,4-tetrahydro-isoquinoline-3-carbonyl]-amino}-3-phenyl-propionic acid]: the IC50 in assay [1] was 0.33 to 3.3 µM; in assay [2], above 1 µM; in assay [3], above 3.3 µM; in assay [4] it was 0.33 to 3.3 µM.
As for `CCOC(=O)[C@H](CC(C)C)NC(=O)[C@@H]1Cc2ccccc2CN1C(=O)CCCCCCC(=O)NO` [Compound 50, (S)-2-{[(S)-2-(7-Hydroxycarbamoyl-heptanoyl)-1,2,3,4-tetrahydro-isoquinoline-3-carbonyl]-amino}-4-methyl-pentanoic acid ethyl ester], the IC50 in assay [1] was 0.33 to 3.3 µM; in assay [2] it was above 1 µM; in assay [3] it was above 3.3 µM; in assay [4], 0.33 to 3.3 µM.
For the molecule `CC(C)C[C@H](NC(=O)[C@@H]1Cc2ccccc2CN1C(=O)CCCCCCC(=O)NO)C(=O)OC1CCCC1` [Compound 51, (S)-2-{[(S)-2-(7-Hydroxycarbamoyl-heptanoyl)-1,2,3,4-tetrahydro-isoquinoline-3-carbonyl]-amino}-4-methyl-pentanoic acid cyclopentyl ester], the IC50 in assay [1] is 0.33 to 3.3 µM; in assay [2], 0.101 to 1 µM; in assay [3], above 3.3 µM; in assay [4], 0.33 to 3.3 µM.
`O=C(CCCCCCC(=O)N1CCCC1C(=O)N[C@H](C(=O)OC1CCCC1)c1ccccc1)NO` (stereo partly drawn) [Compound 53, (S)-{[1-(7-Hydroxycarbamoyl-heptanoyl)-pyrrolidine-2-carbonyl]-amino}-phenyl-acetic acid cyclopentyl ester]: the IC50 was above 3.3 µM in assay [1], above 1 µM in assay [2], above 3.3 µM in assay [3] and above 3.3 µM in assay [4].
Turning to `CCOC(=O)[C@H](Cc1ccccc1)NC(=O)C1CCCN1C(=O)CCCCCCC(=O)NO` (stereo partly drawn) [Compound 55, (S)-2-{[1-(7-Hydroxycarbamoyl-heptanoyl)-pyrrolidine-2-carbonyl]-amino}-3-phenyl-propionic acid ethyl ester], the concentration for half-maximal inhibition (IC50) in assay [1] was above 3.3 µM; in assay [2] it was above 1 µM; in assay [3], above 3.3 µM; in assay [4] it was above 3.3 µM.
`O=C(CCCCCCC(=O)N1CCCC1C(=O)N[C@@H](Cc1ccccc1)C(=O)OC1CCCC1)NO` (stereo partly drawn) [Compound 56, (S)-2-{[1-(7-Hydroxycarbamoyl-heptanoyl)-pyrrolidine-2-carbonyl]-amino}-3-phenyl-propionic acid cyclopentyl ester]: the IC50 was above 3.3 µM in assay [1], above 1 µM in assay [2], above 3.3 µM in assay [3] and above 3.3 µM in assay [4].
Turning to `O=C(CCCCCCC(=O)N1Cc2[nH]c3ccccc3c2[C@H](C(=O)N[C@@H](Cc2ccccc2)C(=O)OC2CCCC2)C1)NO` [Compound 58, (S)-2-{[(S)-2-(7-Hydroxycarbamoyl-heptanoyl)-2,3,4,9-tetrahydro-1H-beta-carboline-4-carbonyl]-amino}-3-phenyl-propionic acid cyclopentyl ester], the IC50 in assay [1] lay in the range of 0.33 to 3.3 µM; in assay [2], 0.101 to 1 µM; in assay [3], 0.33 to 3.3 µM; in assay [4], 0.33 to 3.3 µM.
Take `O=C(CCCCCCC(=O)Nc1cccc(C(=O)N[C@H](C(=O)OC2CCCC2)c2ccccc2)c1)NO` [Compound 60, (S)-[3-(7-Hydroxycarbamoyl-heptanoylamino)-benzoylamino]-phenyl-acetic acid cyclopentyl ester]: the IC50 fell in the range of 0.33 to 3.3 µM in assay [1], 0.101 to 1 µM in assay [2], 0.33 to 3.3 µM in assay [3] and 0.33 to 3.3 µM in assay [4].
For `CC(C)C[C@H](NC(=O)c1cccc(NC(=O)CCCCCCC(=O)NO)c1)C(=O)OC1CCCC1` [Compound 62, (S)-2-[3-(7-Hydroxycarbamoyl-heptanoylamino)-benzoylamino]-4-methyl-pentanoic acid cyclopentyl ester], the IC50 was 0.33 to 3.3 µM in assay [1], 0.101 to 1 µM in assay [2], above 3.3 µM in assay [3] and above 3.3 µM in assay [4].
With `CCOC(=O)[C@H](Cc1ccccc1)NCc1cncc(NC(=O)CCCCCCC(=O)NO)c1` [Compound 66, (S)-2-{[5-(7-Hydroxycarbamoyl-heptanoylamino)-pyridin-3-ylmethyl]-amino}-3-phenyl-propionic acid ethyl ester], the IC50 in assay [1] is above 3.3 µM; in assay [2], 0.101 to 1 µM; in assay [3], above 3.3 µM; in assay [4], above 3.3 µM.
For `CC(C)(C)OC(=O)[C@H](Cc1ccccc1)NCc1cncc(NC(=O)CCCCCCC(=O)NO)c1` [Compound 68, (S)-2-{[5-(7-Hydroxycarbamoyl-heptanoylamino)-pyridin-3-ylmethyl]-amino}-3-phenyl-propionic acid tert-butyl ester], the 50% inhibitory concentration (IC50) in assay [1] is 0.33 to 3.3 µM; in assay [2], 0.101 to 1 µM; in assay [3], above 3.3 µM; in assay [4], 0.33 to 3.3 µM.
`O=C(CCCCCCC(=O)Nc1cccc(CCN[C@H](C(=O)OC2CCCC2)c2ccccc2)c1)NO` [Compound 71, (S)-{2-[3-(7-Hydroxycarbamoyl-heptanoylamino)-phenyl]-ethylamino}-phenyl-acetic acid cyclopentyl ester]: the IC50 was 0.33 to 3.3 µM in assay [1], below 0.1 µM in assay [2], 0.33 to 3.3 µM in assay [3] and below 0.33 µM in assay [4].
